From patent US6121512A, “Cytochrome P-450 constructs and method of producing herbicide-resistant transgenic plants” (North Carolina State University, priority 1997, dated 2000)

Experiments:
soybean CYP71A10 = target: T1, soybean CYP71A10 (Glycine max, UniProt O48918); test: In vitro herbicide metabolism assay and enzyme kinetics, microsomes of yeast expressing CYP71A10; format: biochemical; conditions: for metabolites formed from the radiolabeled herbicide (TLC): 45 minutes at 27° C., 0.75 mM NADPH, 2.5 mg/ml microsomal protein
T1 construct: microsomes of yeast W(R) overexpressing endogenous P450 reductase
T1 sequence (O48918 1-513): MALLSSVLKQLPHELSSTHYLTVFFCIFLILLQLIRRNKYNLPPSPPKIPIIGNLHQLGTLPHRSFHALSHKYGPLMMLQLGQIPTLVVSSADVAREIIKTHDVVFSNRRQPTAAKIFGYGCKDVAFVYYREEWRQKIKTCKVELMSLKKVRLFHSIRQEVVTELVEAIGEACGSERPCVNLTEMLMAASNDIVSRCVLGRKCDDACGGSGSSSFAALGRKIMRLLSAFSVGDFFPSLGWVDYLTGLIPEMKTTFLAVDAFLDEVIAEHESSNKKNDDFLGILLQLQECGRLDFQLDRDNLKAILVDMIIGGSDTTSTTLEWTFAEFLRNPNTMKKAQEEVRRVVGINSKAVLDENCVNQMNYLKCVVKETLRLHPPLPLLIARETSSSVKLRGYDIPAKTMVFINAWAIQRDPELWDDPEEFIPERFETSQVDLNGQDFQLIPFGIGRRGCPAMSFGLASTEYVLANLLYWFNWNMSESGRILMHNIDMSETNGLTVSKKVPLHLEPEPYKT
T1 sequence (P16603 1-691 partner): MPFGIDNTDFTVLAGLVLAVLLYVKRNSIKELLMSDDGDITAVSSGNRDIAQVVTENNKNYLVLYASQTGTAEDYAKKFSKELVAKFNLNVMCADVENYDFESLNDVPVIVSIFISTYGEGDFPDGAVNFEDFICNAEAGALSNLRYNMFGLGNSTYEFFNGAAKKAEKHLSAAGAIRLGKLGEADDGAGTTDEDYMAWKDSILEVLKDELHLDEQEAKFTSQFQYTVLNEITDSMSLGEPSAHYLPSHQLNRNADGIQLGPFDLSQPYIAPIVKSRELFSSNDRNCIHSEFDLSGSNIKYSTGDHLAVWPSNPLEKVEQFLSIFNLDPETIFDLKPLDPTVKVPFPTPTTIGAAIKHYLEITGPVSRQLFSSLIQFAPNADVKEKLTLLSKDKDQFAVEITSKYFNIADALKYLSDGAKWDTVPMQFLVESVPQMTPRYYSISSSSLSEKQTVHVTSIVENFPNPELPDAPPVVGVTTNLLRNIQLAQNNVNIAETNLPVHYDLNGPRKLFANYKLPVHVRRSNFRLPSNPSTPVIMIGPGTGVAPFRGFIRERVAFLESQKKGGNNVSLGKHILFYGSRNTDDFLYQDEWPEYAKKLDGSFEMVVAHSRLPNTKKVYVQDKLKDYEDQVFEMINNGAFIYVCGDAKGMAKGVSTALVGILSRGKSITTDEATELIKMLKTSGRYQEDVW
Procedure: Yeast transformation was performed as described by Geitz et al., Nucleic Acids Research 20:1425 (1992). Media composition, culturing conditions, galactose induction, and microsomal preparations were conducted according to Pompon et al., Methods Enzymol. 272:51-64 (1995), using a culture volume of 250 ml. Microsomal protein was quantified spectrophotometrically using the method of Waddell, J. Lab. Clin. Med. 48:311-314 (1956), using bovine albumin as a standard. Dithionite-reduced, carbon monoxide difference spectra was obtained as previously outlined (Estabrook and Werringloer, Methods Ennzmol. 52:212-220 (1978)) using a Shimadzu Recording Spectrophotometer UV-240 (Shimadzu, Kyoto, Japan). P-450 protein concentrations of yeast microsomes were calculated using a millimolar extinction coefficient of 91 (Omura and Sato, J. Biol. Chem., 239:2370-2378 (1964)).
Yeast microsomes enriched for a discrete soybean P-450 isozyme were assayed for their capacity to metabolize the ten herbicides and one insecticide listed in Table 3. The reaction mixtures contained 10,000 DPM (100-200 ng) radiolabeled substrate, 0.75 mM NAPDH, 2.5 mg/ml microsomal protein. Total reaction volumes were adjusted to 150 μl with 50 mM phosphate buffer (pH 7.1). The mixtures were incubated under light for 45 minutes at 27° C., arrested with 50 μl acetone and centriftiged at 14 000×g for 2 minutes. […] Radiolabeled bentazon and imazaquin-containing samples were spotted onto 200 micron Whatman LKC18F silica gel reversed-phase plates. All plates were developed in a benzene/acetone 2:1 (v/v) solvent system with the exception of prosulfaron, developed in toluene/acetone/acetic acid, 75:20:5 (v/v/v), and bentazon and imazaquin, developed in methanol/75 mM sodium acetate 40:60 (v/v). The developed plates were scanned with a Bioscan System 400 imaging scanner (Bioscan, Washington, D.C.), and the production of metabolites was determined based on the chromatographic profiles. For microsomes containing the expressed CYP71A10 enzyme, control experiments were also conducted to measure the NADPH-dependency, and the inhibitory effects of CO. CO treatment of the sample was achieved by gentle bubbling of the gas through the reaction mixture for 2 minutes immediately before the assay was initiated by the addition of NADPH.
Substrate conversion was quantified by a combination of TLC analysis and scintillation spectrometry. The location of the metabolic products on the TLC plates was identified using an imaging scanner, the bands were scraped and analyzed by scintillation spectrometry. The amount of metabolite produced was calculated based on specific activity and scintillation counts. Each assay was repeated at least twice. Km and Vmax values were estimated using nonlinear regression analysis.

[1] = test system: excised leaves of transgenic tobacco plant 25/2 progeny (CYP71A10-transformed); test: In vivo herbicide metabolism assay, excised leaves of CYP71A10-transformed tobacco; set-up: species or system Nicotiana tabacum cv SR1; conditions: for % of herbicide metabolized, CYP71A10-transformed: after 14 hours, 1.2 nmol herbicide, standard error in parentheses, four 25/2 plants; for share of the chlortoluron metabolites recovered from CYP71A10-transformed leaves: 14 hours, TLC
Procedure: (§1) Seeds from primary transgenic tobacco plants transformed with CYP71A10 and control plants transformed with the pBI121 vector were grown in Petri dishes containing MS salts and 100 μg/ml kanamycin. At five weeks post-seeding, kanamycin-resistant plantlets were transplanted into pots containing soil and grown an additional two weeks. Single leaves of approximately 10 cm^2 in size were excised and their petioles inserted into 100 μl of H2 O containing radiolabeled herbicide. The leaves were placed in a growth chamber maintaining a temperature of 27° C. and incubated until the entire volume of the herbicide solution was drawn up by the transpirational stream of the leaves (about 3 hrs). The leaves were subsequently transferred into an Eppendorf tube containing distilled water and further incubated for a total of 14 hours.
(§2) [^14 C]-labeled herbicide was extracted from the leaves by grinding for 5 minutes in 250 μl methanol with a plastic pellet pestle driven by an electric drill. After centrifugation for 3 minutes at 14,000 g, 75μl of the supernatant was spotted on a Whatman K6F silica plate and developed in a solvent system containing chloroforn/ethanol/acetic acid 135:10:15 (v/v/v). The separated herbicide derivatives were visualized using an imaging scanner. Substrate conversion was quantified based on the amount of herbicide absorbed, and the ratios of the parent compound and the produced metabolites determined from the TLC profiles.

[2] = test system: excised leaves of control tobacco plants transformed with pBI121; test: In vivo herbicide metabolism assay, excised leaves of control tobacco; set-up: species or system Nicotiana tabacum cv SR1; conditions: for % of herbicide metabolized, Control: after 14 hours, 1.2 nmol herbicide, standard error in parentheses, three pBI121 control plants; for share of the chlortoluron metabolites produced in control leaves: 14 hours, TLC
Procedure: as §1, §2

[3] = test system: CYP71A10-transformed tobacco; test: Herbicide tolerance, seeds germinated on herbicide medium, CYP71A10-transformed tobacco; format: in vivo, Nicotiana tabacum cv SR1; conditions: for tolerance of line 25/2 to the herbicide: compared with control plants, data not shown
Procedure: (§3) T1 generation seeds from CYP71A10-transformed tobacco and pBI121-transformed control plants were placed onto Petri dishes containing MS salts and linuron (using its commercial formulation LOROX 50 DF) at active ingredient concentrations ranging from 0.25 to 3.0 μM. Chlortoluron was added at 0, 1.0, 5.0 and 10.0 μM concentrations using a 99.5% pure analytical standard. The Petri dishes were incubated in a growth chamber maintaining a constant temperature of 27° C. and a 16/8 hour light/dark cycle. The phytotoxic effects of the treatments were determined visually by comparison to control plants and plants grown in the absence of the herbicide. All treatments were repeated at least twice.

[4] = test system: wild-type SR1 plants and pBI121-transformed control tobacco plants; test: Herbicide tolerance, seeds germinated on herbicide medium, control tobacco; format: in vivo, Nicotiana tabacum cv SR1; conditions: data not shown
Procedure: as §3

Hill-reaction = conditions: cited from earlier work
[5] = substrate: CN(C)C(=O)Nc1ccc(Cl)c(Cl)c1; test: cells, lysate or membranes named; conditions: other: yeast microsomes containing CYP71A10; standard error in parentheses; nonlinear regression; pH 7.1; 27.0 °C
[6] = substrate: CN(C)C(=O)Nc1cccc(C(F)(F)F)c1; test: In vitro herbicide metabolism assay and enzyme kinetics, microsomes of yeast expressing CYP71A10; format: biochemical, soybean (Glycine max); conditions: other: yeast microsomes containing CYP71A10; standard error in parentheses; nonlinear regression; pH 7.1; 27.0 °C
[7] = substrate: CON(C)C(=O)Nc1ccc(Cl)c(Cl)c1; test: as above; format: biochemical, soybean (Glycine max); conditions: other: yeast microsomes containing CYP71A10; standard error in parentheses; nonlinear regression; pH 7.1; 27.0 °C
[8] = substrate: Cc1ccc(NC(=O)N(C)C)cc1Cl; test: as above; format: biochemical, soybean (Glycine max); conditions: other: yeast microsomes containing CYP71A10; standard error in parentheses; nonlinear regression; pH 7.1; 27.0 °C
[9] = yeast microsomes containing CYP71A10, standard error in parentheses

[C-]#[O+] [CO, carbon monoxide]
reduction of linuron metabolizing activity (soybean CYP71A10; linuron as substrate (3.2 μM), CO bubbled through reaction mixture for 2 minutes): approximately 37%

CN(C)C(=O)Nc1ccc(Cl)c(Cl)c1 [Diuron, diuron]
metabolites formed from the radiolabeled herbicide (TLC) (soybean CYP71A10): a single metabolite
Turnover (soybean CYP71A10; [9]): 0.4 (0.04) min^-1
Vmax (soybean CYP71A10; [9]): 16.8 (1.6) pmol min^-1 mg^-1 protein
% of herbicide metabolized, CYP71A10-transformed [1]: 49 (7.0) %
% of herbicide metabolized, Control [2]: 20 (2.0) %
tolerance of line 25/2 to the herbicide [3]: little tolerance

CN(C)C(=O)Nc1cccc(C(F)(F)F)c1 [Fluometuron, fluometuron]
metabolites formed from the radiolabeled herbicide (TLC) (soybean CYP71A10): a single metabolite
Turnover (soybean CYP71A10; [9]): 6.8 (0.24) min^-1
% of herbicide metabolized, CYP71A10-transformed [1]: 91 (4.5) %
% of herbicide metabolized, Control [2]: 15 (0.6) %
tolerance of line 25/2 to the herbicide [3]: little tolerance

CON(C)C(=O)Nc1ccc(Cl)c(Cl)c1 [Linuron, linuron]
metabolites formed from the radiolabeled herbicide (TLC) (soybean CYP71A10): two (a major and a minor) metabolites
linuron metabolizing activity with microsomes of yeast expressing only the V60 control plasmid (soybean CYP71A10; V-60 control microsomes, no CYP71A10): no activity is detected
linuron metabolites when NADPH is omitted from the reaction (soybean CYP71A10; no NADPH): no metabolites are observed
Turnover (soybean CYP71A10; [9]): 2.8 (0.27) min^-1
% of herbicide metabolized, CYP71A10-transformed [1]: 87 (2.0) %
% of herbicide metabolized, Control [2]: 12 (2.6) %
germinated seedlings of plant 25/2 inhibited by the herbicide ([3]; 0.5 μM linuron in medium): one of 23
number of 20 other independent CYP71A10-expressing lines giving linuron tolerant progeny ([3]; 0.5 μM linuron in medium): 19 lines
linuron level to which tolerant 25/2 plants were observed ([3]; increasing percentage of plants inhibited with rising concentration): ≤ 2.5 µM
growth of wild-type SR1 and pBI121 control plants ([4]; 0.25 μM linuron (LOROX 50 DF) in medium): severely inhibited
growth of wild-type SR1 and pBI121 control plants ([4]; linuron 0.5 μM and higher in medium): completely arrested
inhibition of the Hill-reaction relative to N-demethyl linuron (Hill-reaction): 10 fold

CNC(=O)Nc1ccc(C)c(Cl)c1 [N-demethyl chlortoluron]
share of the chlortoluron metabolites recovered from CYP71A10-transformed leaves [1]: 8%
share of the chlortoluron metabolites produced in control leaves [2]: Sixty three
share of the chlortoluron metabolites produced in control leaves ([2]; listed as Ndemethyl chlortoluron): 63%

CN(C)C(=O)Nc1ccc(CO)c(Cl)c1 [ring-methyl hydroxy chlortoluron]
share of the chlortoluron metabolites recovered from CYP71A10-transformed leaves [1]: 47%

Clc1ccc(N2N=NC3C4CC(C5N=NC45)C32)cc1 (centres unmarked) [tetcyclasis]
effect on linuron metabolizing activity (soybean CYP71A10): completely abolished

B1: soybean CYP71A10 (Glycine max) (protein)
chain: MALLSSVLKQLPHELSSTHYLTVFFCIFLILLQLIRRNKYNLPPSPPKIPIIGNLHQLGTLPHRSFHALSHKYGPLMMLQLGQIPTLVVSSADVAREIIKTHDVVFSNRRQPTAAKIFGYGCKDVAFVYYREEWRQKIKTCKVELMSLKKVRLFHSIRQEVVTELVEAIGEACGSERPCVNLTEMLMAASNDIVSRCVLGRKCDDACGGSGSSSFAALGRKIMRLLSAFSVGDFFPSLGWVDYLTGLIPEMKTTFLAVDAFLDEVIAEHESSNKKNDDFLGILLQLQECGRLDFQLDRDNLKAILVDMIIGGSDTTSTTLEWTFAEFLRNPNTMKKAQEEVRRVVGINSKAVLDENCVNQMNYLKCVVKETLRLHPPLPLLIARETSSSVKLRGYDIPAKTMVFINAWAIQRDPELWDDPEEFIPERFETSQVDLNGQDFQLIPFGIGRRGCPAMSFGLASTEYVLANLLYWFNWNMSESGRILMHNIDMSETNGLTVSKKVPLHLEPEPYKT
notes: microsomes of yeast W(R) overexpressing endogenous P450 reductase
Km [5]: 1.5 µM
Km [6]: 14.9 µM
Km [7]: 9.8 µM
Vmax [7]: 125.6 (12.0) pmol min^-1 mg^-1 protein
Km [8]: 1 µM
Vmax [8]: 29.4 (2.2) pmol min^-1 mg^-1 protein
